Like-named read-outs stand apart in the source and are kept apart here.
Assays:
Type in all cases: in vivo
[1] = test system: Common lambsquarters (Chenopodium album L.); experiment: Test Example 8: pot test, Example 8 suspension concentrate with Frigate; details: 408 h, 17 days after treatment, duplicate, read-out: Growth Inhibition (%) of Common Lambsquarters; for inhibition at 5 g/ha: Compound A 5 g/ha; for inhibition at 10 g/ha: Compound A 10 g/ha; for inhibition at 20 g/ha: Compound A 20 g/ha; for inhibition at 40 g/ha: Compound A 40 g/ha
Protocol: Common lambsquarters (Chenopodium album L.) seeds were sown in 1/1,000,000-hectare pots filled with upland soil and arranged in a duplicate system. When the common lambsquarters plants grew to a 8- to 9-leaf stage, the oil-based suspension concentrate obtained in Example 8 was diluted with 500 liters/hectare of water containing a predetermined amount of Frigate and was applied foliarly to the plants with a small spray gun.
Seventeen days after treatment, the growth inhibition of plants was evaluated with visual observation in the same manner as in Test Example 1 and are shown in Table 8.

[2] = test system: slender amaranth (Amaranthus virdis L.); experiment: Test Example 12: field plot test, growth inhibition; details: 648 h, Example 8 suspension concentrate, 27 days after treatment, field plots, read-out: Growth Inhibition (%) AV; for inhibition at 40 g/ha: Compound A 40 g/ha; for inhibition at 60 g/ha: Compound A 60 g/ha
Text: (§1) In field plots of 3 m² (1 m × 3 m) unit arranged in a duplicate system, seeds of corn, crabgrass (Digitaria sanguinalis L.), green foxtail (Setaria viridis L.), common lambsquarters (Chenopodium album L.), slender amaranth (Amaranthus virdis L.) and velvetleaf (Abutilon theophrasti MEDIC.) were sown and grown. Also, barnyardgrass (Echinochloa crus-galli L.), henbit (Lamiun amplexlcaule L.), pale smartweed (Polygonum lapathifolium L.) and threeseeded copperleaf (Acalypha australis L.) were allowed to grow spontaneously. When the plants grew to certain stages (corn: 6.1 to 6.5-leaf stage, crabgrass: 2.0 to 4.5-leaf stage, green foxtail: 3.0 to 4.5-leaf stage, common lambsquarters: 4.0 to 8.0-leaf stage, slender amaranth: 1.0 to 4.0-leaf stage, velvetleaf: 2.0 to 3.5-leaf stage, barnyardgrass: 3.0 to 4.5-leaf stage, henbit: 2.0 to 5.0 cm, pale smartweed: 3.0 to 5.0-leaf stage and threeseeded copperleaf: 2.0 to 4.0-leaf stage), the oil-based suspension concentrate obtained in Example 8 was diluted with 200 liters/hectare of water containing a predetermined amount of Frigate and was applied foliarly to the plants with a small spray gun.
(§2) Twenty seven days after treatment, the growth inhibition of plants except for corn plants was evaluated with visual observation in the same manner as in Test Example 1 and are shown in Table 12.

[3] = test system: Common lambsquarters (Chenopodium album L.); experiment: as above; details: Example 8 suspension concentrate, 27 days after treatment, field plots; for inhibition at 40 g/ha: Compound A 40 g/ha; for inhibition at 60 g/ha: Compound A 60 g/ha
Text: as §1, §2

[4] = test system: henbit (Lamiun amplexlcaule L.); experiment: as above; details: 648 h, Example 8 suspension concentrate, 27 days after treatment, field plots, read-out: Growth Inhibition (%) LA
Text: as §1, §2

[5] = test system: barnyardgrass (Echinochloa crus-galli L.); experiment: as above; details: 648 h, Example 8 suspension concentrate, 27 days after treatment, field plots, read-out: Growth Inhibition (%) EC
Text: as §1, §2

[6] = test system: threeseeded copperleaf (Acalypha australis L.); experiment: as above; details: Example 8 suspension concentrate, 27 days after treatment, field plots; for inhibition at 40 g/ha: Compound A 40 g/ha
Text: as §1, §2

total evaluation = experiment: Test Example 12: field plot test, total evaluation of growth inhibition; details: 648 h, Example 8 suspension concentrate, 27 days after treatment, field plots, read-out: Growth Inhibition (%) TE; for inhibition at 40 g/ha: Compound A 40 g/ha; for inhibition at 60 g/ha: Compound A 60 g/ha
Text: as §1, §2

[7] = test system: johnsongrass (Sorghum halepense L.); experiment: Test Example 10: pot test on rhizome plants, Example 8 suspension concentrate with Frigate; details: duplicate; for inhibition at 10 g/ha / inhibition at 20 g/ha / inhibition at 30 g/ha / inhibition at 40 g/ha: Sorghum halepense; for inhibition at 10 g/ha: Compound A 10 g/ha
Protocol: Rhizomes of johnsongrass (Sorghum halepense L.) induced to germinate were transplanted in 1/150,000-hectare pots filled with upland soil and arranged in a duplicate system. When the johnsongrass plants grew to a 3- to 6-leaf stage, the oil-based suspension concentrate obtained in Example 8 was diluted with 200 liters/hectare of water containing a predetermined amount of Frigate and was applied foliarly to the plants with a small spray gun.
Seventeen days and fifty six days after treatment (D.A.T.) the growth inhibition of plants was evaluated with visual observation in the same manner as in Test Example 1 and are shown in Table 10.

[8] = Frigate 0.2 % by volume, Compound A 20 g/ha
[9] = Frigate 0.2 % by volume, Compound A 30 g/ha
[10] = Chenopodium album, 648 h, Frigate 0.2 % by volume, read-out: Growth Inhibition (%) CA
[11] = Chenopodium album, 648 h, Frigate: No addition, read-out: Growth Inhibition (%) CA
[12] = Frigate 0.2 % by volume, Compound A 40 g/ha
[13] = Frigate: No addition, Compound A 60 g/ha

SMILES: COc1cc(OC)nc(NC(=O)NS(=O)(=O)c2ncccc2C(=O)N(C)C)n1 [Compound A, N-[(4,6-dimethoxypyrimidin-2-yl)aminocarbonyl]-3-dimethylaminocarbonyl-2-pyridinesulfonamide]
- inhibition at 5 g/ha ([1]; Frigate 0.25 % by volume): 50%
- inhibition at 10 g/ha ([1]; Frigate 0.25 % by volume): 60%
- inhibition at 20 g/ha ([1]; Frigate 0.25 % by volume): 80%
- inhibition at 40 g/ha ([1]; Frigate 0.25 % by volume): 90%
- inhibition at 5 g/ha ([1]; Frigate 0.5 % by volume): 55%
- inhibition at 10 g/ha ([1]; Frigate 0.5 % by volume): 70%
- inhibition at 20 g/ha ([1]; Frigate 0.5 % by volume): 85%
- inhibition at 40 g/ha ([1]; Frigate 0.5 % by volume): 90%
- inhibition at 5 g/ha ([1]; Frigate: No addition): 0%
- inhibition at 10 g/ha ([1]; Frigate: No addition): 0%
- inhibition at 20 g/ha ([1]; Frigate: No addition): 50%
- inhibition at 40 g/ha ([1]; Frigate: No addition): 80%
- inhibition at 20 g/ha [2, 8]: 100%
- inhibition at 30 g/ha [2, 9]: 99%
- inhibition at 40 g/ha ([2]; Frigate 0.2 % by volume): 99%
- inhibition at 60 g/ha ([2]; Frigate 0.2 % by volume): 99%
- inhibition at 40 g/ha ([2]; Frigate: No addition): 99%
- inhibition at 60 g/ha ([2]; Frigate: No addition): 99%
- inhibition at 20 g/ha ([3]; Chenopodium album, 648 h, Frigate 0.2 % by volume, Compound A 20 g/ha, read-out: Growth Inhibition (%) CA): 80%
- inhibition at 30 g/ha ([3]; Chenopodium album, 648 h, Frigate 0.2 % by volume, Compound A 30 g/ha, read-out: Growth Inhibition (%) CA): 80%
- inhibition at 40 g/ha [3, 10]: 95%
- inhibition at 60 g/ha [3, 10]: 99%
- inhibition at 40 g/ha [3, 11]: 40%
- inhibition at 60 g/ha [3, 11]: 50%
- Growth Inhibition (%) CA [3, 8]: 75%
- inhibition at 20 g/ha [4, 8]: 98%
- inhibition at 30 g/ha [4, 9]: 98%
- inhibition at 40 g/ha [4, 12]: 98%
- inhibition at 60 g/ha [4, 13]: 98%
- inhibition at 20 g/ha [5, 8]: 100%
- inhibition at 30 g/ha [5, 9]: 100%
- inhibition at 40 g/ha [5, 12]: 100%
- inhibition at 60 g/ha [5, 13]: 100%
- inhibition at 20 g/ha ([6]; Acalypha australis, 648 h, Frigate 0.2 % by volume, Compound A 20 g/ha, read-out: Growth Inhibition (%) AA): 90%
- inhibition at 30 g/ha ([6]; Acalypha australis, 648 h, Frigate 0.2 % by volume, Compound A 30 g/ha, read-out: Growth Inhibition (%) AA): 90%
- inhibition at 40 g/ha ([6]; Acalypha australis, 648 h, Frigate 0.2 % by volume, read-out: Growth Inhibition (%) AA): 95%
- inhibition at 60 g/ha ([6]; Acalypha australis, 648 h, Frigate 0.2 % by volume, Compound A 60 g/ha, read-out: Growth Inhibition (%) AA): 90%
- inhibition at 40 g/ha ([6]; Acalypha australis, 648 h, Frigate: No addition, read-out: Growth Inhibition (%) AA): 90%
- inhibition at 60 g/ha ([6]; Acalypha australis, 648 h, Frigate: No addition, Compound A 60 g/ha, read-out: Growth Inhibition (%) AA): 90%
- Growth Inhibition (%) AA ([6]; Frigate 0.2 % by volume, Compound A 60 g/ha): 98%
- inhibition at 20 g/ha (total evaluation; [8]): 95%
- inhibition at 30 g/ha (total evaluation; [9]): 95%
- inhibition at 40 g/ha (total evaluation; Frigate 0.2 % by volume): 95%
- inhibition at 60 g/ha (total evaluation; Frigate 0.2 % by volume): 99%
- inhibition at 40 g/ha (total evaluation; Frigate: No addition): 70%
- inhibition at 60 g/ha (total evaluation; Frigate: No addition): 70%
- Growth Inhibition (%) of Johnsongrass 17 D.A.T. ([7]; Frigate 0.1 % by volume, Compound A 30 g/ha, 17 days after treatment): 80%
- Growth Inhibition (%) of Johnsongrass 17 D.A.T. ([7]; Frigate 0.2 % by volume, Compound A 20 g/ha, 17 days after treatment): 80%
- Growth Inhibition (%) of Johnsongrass 17 D.A.T. ([7]; Frigate 0.2 % by volume, Compound A 30 g/ha, 17 days after treatment): 80%
- Growth Inhibition (%) of Johnsongrass 56 D.A.T. ([7]; Frigate 0.2 % by volume, Compound A 30 g/ha, 56 days after treatment): 98%
- Growth Inhibition (%) of Johnsongrass 56 D.A.T. ([7]; Frigate: No addition, Compound A 40 g/ha, 56 days after treatment): 98%
- inhibition at 10 g/ha ([7]; 408 h, Frigate 0.1 % by volume, 17 days after treatment, read-out: Growth Inhibition (%) of Johnsongrass 17 D.A.T.): 65%
- inhibition at 20 g/ha ([7]; 408 h, Frigate 0.1 % by volume, Compound A 20 g/ha, 17 days after treatment, read-out: Growth Inhibition (%) of Johnsongrass 17 D.A.T.): 75%
- inhibition at 30 g/ha ([7]; 408 h, Frigate 0.1 % by volume, Compound A 30 g/ha, 17 days after treatment, read-out: Growth Inhibition (%) of Johnsongrass 17 D.A.T.): 75%
- inhibition at 10 g/ha ([7]; 408 h, Frigate 0.2 % by volume, 17 days after treatment, read-out: Growth Inhibition (%) of Johnsongrass 17 D.A.T.): 70%
- inhibition at 20 g/ha ([7]; 408 h, Frigate 0.2 % by volume, Compound A 20 g/ha, 17 days after treatment, read-out: Growth Inhibition (%) of Johnsongrass 17 D.A.T.): 75%
- inhibition at 30 g/ha ([7]; 408 h, Frigate 0.2 % by volume, Compound A 30 g/ha, 17 days after treatment, read-out: Growth Inhibition (%) of Johnsongrass 17 D.A.T.): 85%
- inhibition at 20 g/ha ([7]; 408 h, Frigate: No addition, Compound A 20 g/ha, 17 days after treatment, read-out: Growth Inhibition (%) of Johnsongrass 17 D.A.T.): 65%
- inhibition at 30 g/ha ([7]; 408 h, Frigate: No addition, Compound A 30 g/ha, 17 days after treatment, read-out: Growth Inhibition (%) of Johnsongrass 17 D.A.T.): 60%
- inhibition at 40 g/ha ([7]; 408 h, Frigate: No addition, Compound A 40 g/ha, 17 days after treatment, read-out: Growth Inhibition (%) of Johnsongrass 17 D.A.T.): 65%
- inhibition at 10 g/ha ([7]; 1344 h, Frigate 0.1 % by volume, 56 days after treatment, read-out: Growth Inhibition (%) of Johnsongrass 56 D.A.T.): 100%
- inhibition at 20 g/ha ([7]; 1344 h, Frigate 0.1 % by volume, Compound A 20 g/ha, 56 days after treatment, read-out: Growth Inhibition (%) of Johnsongrass 56 D.A.T.): 100%
- inhibition at 30 g/ha ([7]; 1344 h, Frigate 0.1 % by volume, Compound A 30 g/ha, 56 days after treatment, read-out: Growth Inhibition (%) of Johnsongrass 56 D.A.T.): 100%
- inhibition at 10 g/ha ([7]; 1344 h, Frigate 0.2 % by volume, 56 days after treatment, read-out: Growth Inhibition (%) of Johnsongrass 56 D.A.T.): 100%
- inhibition at 20 g/ha ([7]; 1344 h, Frigate 0.2 % by volume, Compound A 20 g/ha, 56 days after treatment, read-out: Growth Inhibition (%) of Johnsongrass 56 D.A.T.): 100%
- inhibition at 30 g/ha ([7]; 1344 h, Frigate 0.2 % by volume, Compound A 30 g/ha, 56 days after treatment, read-out: Growth Inhibition (%) of Johnsongrass 56 D.A.T.): 100%
- inhibition at 20 g/ha ([7]; 1344 h, Frigate: No addition, Compound A 20 g/ha, 56 days after treatment, read-out: Growth Inhibition (%) of Johnsongrass 56 D.A.T.): 90%
- inhibition at 40 g/ha ([7]; 1344 h, Frigate: No addition, Compound A 40 g/ha, 56 days after treatment, read-out: Growth Inhibition (%) of Johnsongrass 56 D.A.T.): 100%
